Where two headings read alike, the source gives them in different places.
Legend:
activated human C1 = activated human C1 (Homo sapiens, UniProt P09871); assay: Test Code 026 (C1 inhibitor); format: biochemical; details: in vitro; serial twofold dilution assay, higher well number higher activity
Protocol: (§1) Percent inhibition is calculated by comparison with simultaneous controls.

[1] = test system: late components of human complement (C3-C9); assay: Test Code 035 (C3-C9 inhibitor); format: biochemical; details: in vitro; lysis of EAC 142; serial twofold dilution assay, higher well number higher activity
Protocol: as §1

[2] = test system: serum complement activity; assay: Guinea Pig Intraperitoneal Test (GPIP); format: in vivo; details: Cavia porcellus, ip, 200 mg/kg i.p.
Protocol: as §1

activated human C1, sequence (P09871 16-688): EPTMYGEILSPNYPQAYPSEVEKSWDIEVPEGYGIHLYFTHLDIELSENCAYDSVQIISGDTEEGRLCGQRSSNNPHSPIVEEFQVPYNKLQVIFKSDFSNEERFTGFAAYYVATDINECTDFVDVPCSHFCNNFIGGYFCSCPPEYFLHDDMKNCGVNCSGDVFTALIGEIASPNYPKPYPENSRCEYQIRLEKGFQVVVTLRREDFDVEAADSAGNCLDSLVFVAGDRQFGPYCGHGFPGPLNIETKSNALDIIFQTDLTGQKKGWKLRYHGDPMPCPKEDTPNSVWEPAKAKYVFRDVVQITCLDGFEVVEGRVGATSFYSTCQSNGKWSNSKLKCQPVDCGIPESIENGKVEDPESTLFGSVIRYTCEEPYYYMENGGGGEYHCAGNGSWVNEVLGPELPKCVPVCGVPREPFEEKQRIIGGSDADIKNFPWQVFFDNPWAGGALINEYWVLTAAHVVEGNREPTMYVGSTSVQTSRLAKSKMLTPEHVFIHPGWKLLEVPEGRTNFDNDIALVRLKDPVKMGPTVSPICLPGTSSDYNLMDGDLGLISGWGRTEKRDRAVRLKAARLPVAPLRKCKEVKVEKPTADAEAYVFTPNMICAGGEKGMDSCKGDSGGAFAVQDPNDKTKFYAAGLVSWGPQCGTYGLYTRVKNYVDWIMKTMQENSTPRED
activated human C1, sequence (P00736 18-705 partner): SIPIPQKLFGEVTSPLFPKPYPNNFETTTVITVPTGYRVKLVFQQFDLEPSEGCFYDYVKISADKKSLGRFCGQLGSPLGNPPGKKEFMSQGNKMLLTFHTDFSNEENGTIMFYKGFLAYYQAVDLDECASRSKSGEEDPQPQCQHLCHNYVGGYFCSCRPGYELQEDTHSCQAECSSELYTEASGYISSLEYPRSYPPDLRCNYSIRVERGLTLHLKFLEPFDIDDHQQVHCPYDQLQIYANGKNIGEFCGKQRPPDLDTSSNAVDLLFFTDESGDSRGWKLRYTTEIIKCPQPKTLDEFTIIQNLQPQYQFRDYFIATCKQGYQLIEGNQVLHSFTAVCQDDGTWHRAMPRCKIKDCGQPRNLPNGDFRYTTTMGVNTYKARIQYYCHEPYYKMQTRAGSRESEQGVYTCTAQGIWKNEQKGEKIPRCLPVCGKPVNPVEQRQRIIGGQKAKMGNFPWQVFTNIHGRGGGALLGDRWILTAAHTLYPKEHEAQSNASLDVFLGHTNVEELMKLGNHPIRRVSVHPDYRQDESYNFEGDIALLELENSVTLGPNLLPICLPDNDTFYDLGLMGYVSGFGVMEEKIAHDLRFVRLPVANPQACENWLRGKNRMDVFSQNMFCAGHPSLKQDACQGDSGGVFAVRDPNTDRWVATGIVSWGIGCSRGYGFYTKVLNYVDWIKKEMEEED
activated human C1, sequence (P02745 23-245 partner): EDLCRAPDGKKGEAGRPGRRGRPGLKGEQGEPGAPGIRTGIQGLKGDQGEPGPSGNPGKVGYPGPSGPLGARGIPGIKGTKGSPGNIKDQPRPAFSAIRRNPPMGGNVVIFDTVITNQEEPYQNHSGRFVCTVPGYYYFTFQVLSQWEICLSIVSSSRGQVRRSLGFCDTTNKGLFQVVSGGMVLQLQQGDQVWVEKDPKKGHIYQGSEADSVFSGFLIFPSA
activated human C1, sequence (P02746 28-253 partner): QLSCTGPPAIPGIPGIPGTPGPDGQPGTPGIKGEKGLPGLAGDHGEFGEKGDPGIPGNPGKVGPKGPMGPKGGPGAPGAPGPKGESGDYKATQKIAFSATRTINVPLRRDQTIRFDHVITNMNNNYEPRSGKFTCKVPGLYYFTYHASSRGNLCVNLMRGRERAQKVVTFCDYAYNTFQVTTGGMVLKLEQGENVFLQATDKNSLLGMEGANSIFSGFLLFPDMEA
activated human C1, sequence (P02747 29-245 partner): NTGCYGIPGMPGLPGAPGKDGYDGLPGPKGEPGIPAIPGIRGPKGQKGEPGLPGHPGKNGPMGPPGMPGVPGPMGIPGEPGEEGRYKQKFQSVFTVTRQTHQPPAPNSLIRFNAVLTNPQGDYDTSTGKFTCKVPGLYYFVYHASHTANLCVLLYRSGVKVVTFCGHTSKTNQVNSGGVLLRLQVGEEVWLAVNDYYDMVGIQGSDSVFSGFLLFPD

With `O=C(Nc1ccc(S[C@@H]2O[C@H](COS(=O)(=O)O)[C@@H](O[C@H]3O[C@H](COS(=O)(=O)O)[C@@H](OS(=O)(=O)O)[C@H](OS(=O)(=O)O)[C@H]3OS(=O)(=O)O)[C@H](OS(=O)(=O)O)[C@H]2OS(=O)(=O)O)cc1)Nc1ccc(S[C@@H]2O[C@H](COS(=O)(=O)O)[C@@H](O[C@H]3O[C@H](COS(=O)(=O)O)[C@@H](OS(=O)(=O)O)[C@H](OS(=O)(=O)O)[C@H]3OS(=O)(=O)O)[C@H](OS(=O)(=O)O)[C@H]2OS(=O)(=O)O)cc1.[Na].[Na].[Na].[Na].[Na].[Na].[Na].[Na].[Na].[Na].[Na].[Na].[Na].[Na]` [Tetradecasodium N,N'-bis[4-[[2,3,6-tri-O-sulfo-4-O-(2,3,4,6-tetra-O-sulfo-α-D-glucopyranosyl)-β-D-glucopyranosyl]thio]phenyl]urea] the “C-1 026 Wells” value (activated human C1) was 11 Wells, the “C-Late 035 Wells” value [1] was 2 Wells and the inhibition at 200 mg/kg ([2]; serum taken 2 hours after injection, read-out: In vivo Activity (Guinea Pig % Inhibition) (Intraperitoneal) Time 2 Hours) was 90%. For the same molecule, the inhibition at 200 mg/kg ([2]; serum taken 6 hours after injection, read-out: In vivo Activity (Guinea Pig % Inhibition) (Intraperitoneal) Time 6 Hours) was 91% and the inhibition at 200 mg/kg ([2]; serum taken 24 hours after injection, read-out: In vivo Activity (Guinea Pig % Inhibition) (Intraperitoneal) Time 24 Hours) was 58%.

Source: patent US4431636A, “Bis(4-O-polyhexaose-thio)-phenyl ureas and method of use” (American Cyanamid Company, priority 1982, dated 1984)
